{
  "source": "patent US8962600B2",
  "about": "“Neuroprotective compounds and their use” (The Medical College of Wisconsin, Inc., priority 2009, dated 2015)",
  "key": {"[1]": {"test_system": "NOS2", "experiment": "LPS-induced NOS2 protein expression in BV2 cells, Western blot", "format": "cell-based, mouse", "conditions": "diapocynin 10 μM 30 min pretreatment, LPS 1 μg/ml 24 hr, back to basal level or below", "method": "Two cell models of neuroinflammation were used to evaluate the anti-neuroinflammatory property of diapocynin including the mouse BV2 microglial cell line, as well as primary microglia isolated from mouse brains. BV2 cells were obtained from the American Tissue Culture Collection. BV2 cells were maintained in RPMI containing 10% FBS and 100 units of pen/strep at 37° C. and 5% CO2. For treatments, RPMI containing 2% FBS and 100 units of pen/strep was used.\nBV2 cell lysates containing equal amounts of protein were loaded in each lane and separated on a 10% SDS-PAGE gel. After separation, the protein was transferred to a nitrocellulose membrane. Non-specific binding sites were blocked with Li-cor blocking buffer for 45 min. The membranes were then treated with primary antibodies directed against NOS2 (mouse monoclonal 1:200) and p67phox (rabbit polyclonal 1:200). To confirm equal amounts of protein were loaded, membranes were also probed for β-actin with a β-actin antibody (dilution of 1:10,000). Secondary antibodies, donkey anti-mouse (Invitrogen) and conjugated anti-rabbit IgG (Rockland), were used at a dilution of 1:10,000 for 1 hr at room temperature. The membranes were imaged and captured using a Li-COR Odyssey infrared imaging system and software."}, "[2]": {"test_system": "dopaminergic neurons in substantia nigra", "experiment": "FLUORO-JADE B and tyrosine hydroxylase double labeling in substantia nigra", "format": "in vivo, C57BL/6 mice", "conditions": "MPTP- and diapocynin-treated mice; 7 days after final MPTP injection", "method": "(§1) Six- to 8-week-old C57BL/6 mice weighing 24 to 28 g were housed in standard conditions of constant temperature (22±1° C.), humidity (relative, 30%), and a 12-h light/dark cycle. Mice were allowed free access to food and water. Use of the animals and protocol procedures were approved and supervised by the Committee on Animal Care at Iowa State University (Ames, Iowa). For neurodegeneration studies, mice either received diapocynin (300 mg/kg dose) by oral gavage for 1 day (pre-treatment before MPTP administration), 5 days (co-treatment with MPTP), or 7 days (post-treatment after MPTP).\nFLUORO-JADE B® and tyrosine hydroxylase (TH) double-labeling was performed in substantia nigra sections, as described previously (58). In brief, 7 days after the final MPTP injection, mice were sacrificed and perfused with 4% PFA and post-fixed with PFA and 30% sucrose, respectively. Fixed brains were cut into 30 μm sections and kept in 30% sucrose-ethylene glycol solutions at −20° C. On the day of staining, sections were rinsed with PBS and incubated with anti-TH antibody (Millipore, mouse monoclonal, dilution 1;1600) followed by Alexa Fluor 568 donkey anti-mouse secondary antibody (Invitrogen). […] Sections were viewed under a Nikon inverted fluorescence microscope (model TE-2000U). […]"}, "[3]": {"test_system": "MPTP mouse model of Parkinson's Disease", "experiment": "HPLC analysis of striatal dopamine and its metabolites, MPTP mouse model (Example 3)", "format": "in vivo, C57BL/6 mice", "conditions": "MPTP- and diapocynin-treated mice, diapocynin 300 mg/kg oral gavage, MPTP 25 mg/kg i.p.", "method": "as §1\nFor checking inflammatory and oxidative stress markers, mice were gavaged diapocynin (300 mg/kg dose) 1 day before MPTP treatment (pre-treatment) and continued for another 4 days of co-treatment with MPTP. In the sub-acute MPTP regimen, MPTP (25 mg/kg) was injected intraperitoneally once per day from day 2 to day 7. Control mice received saline at the same dosage.\nStriatal dopamine (DA), DOPAC and HVA levels were quantified by high-performance liquid chromatography (HPLC) with electrochemical detection. Samples were prepared and quantified as described previously (48, 56). In brief, 7 days after MPTP injection mice were sacrificed, striata were collected and stored at −80° C. On the day of analysis, neurotransmitters from striatal tissues were extracted using an antioxidant extraction solution (0.1 M perchloric acid containing 0.05% Na2EDTA and 0.1% Na2S2O5) and isoproterenol (as an internal standard). The extracts were filtered in 0.22 μm spin tubes, and 20 μl of the samples were loaded for analysis. DA, DOPAC and HVA were separated isocratically on a reversed-phase column with a flow rate of 0.6 ml/min. An HPLC system with an automatic sampler equipped with refrigerated temperature control (model 542; ESA, Inc., Bedford, Mass.) was used for HPLC analysis. The electrochemical detection system consisted of a Coulochem (model 5100A, ESA, Inc.) with a microanalysis cell (model 5014A, ESA, Inc.) and a guard cell (model 5020, ESA, Inc.). […]"}, "[4]": {"test_system": "tyrosine hydroxylase (TH)", "experiment": "Tyrosine hydroxylase expression in striatum and substantia nigra, Western blot and DAB immunostaining", "format": "in vivo, C57BL/6 mice", "method": "as §1\nDAB immunostaining was performed in striatal and substantia nigra sections as described previously (57). In brief, 1 day or 7 days after final dosing of MPTP, mice were sacrificed and perfused with 4% PFA and post-fixed with PFA and 30% sucrose, respectively. Next, fixed brains were cut into 30 μm sections and kept in 30% sucrose-ethylene glycol solutions at −20° C. On the day of staining, sections were rinsed with PBS and incubated with either anti-TH (rabbit anti-mouse, 1:1800; Calbiochem, Gibstown, N.J.), anti-IBA-1 (goat anti-mouse, 1:1000; Dako), anti-GFAP (mouse anti-mouse, 1:1000; Millipore, Billerica, Mass.), or anti-gp91phox (mouse anti-mouse, 1:500; Santa Cruz Biotechnology) overnight at 4° C. […]"}},
  "data": [
    {"smiles": "COc1cc(C(C)=O)cc(-c2cc(C(C)=O)cc(OC)c2O)c1O", "note": "[diapocynin]", "values": [
      {"measurement": "reducing LPS-induced NOS2 protein expression", "setting": "[1]", "result": "extremely effective"},
      {"measurement": "FLUORO-JADE B-positive cells in substantia nigra", "setting": "[2]", "result": "fewer"},
      {"measurement": "TH-positive cells in substantia nigra", "setting": "[2]", "result": "increases"},
      {"measurement": "striatal DOPAC levels", "setting": "[3]", "result": "significant preservation"},
      {"measurement": "striatal HVA levels", "setting": "[3]", "result": "significant preservation"},
      {"measurement": "decrease of dopamine levels in striatum", "setting": "[3]; 7 days after MPTP", "result": "less than 40%"},
      {"measurement": "expression of TH in striatum and substantia nigra (Western blot)", "setting": "[4]; MPTP- and diapocynin-treated mice, 300 mg/kg oral gavage", "result": "less reduction"},
      {"measurement": "loss of TH-positive neurons and terminals in striatum and substantia nigra (TH-DAB immunostaining)", "setting": "[4]; MPTP-treated mice with diapocynin treatment 300 mg/kg oral gavage", "result": "substantially prevented"}
    ]}
  ]
}
